Test results reported in US20040116346A1, “Affinity small molecules for the EPO receptor” (priority 2002, published 2004).

What was measured:
[1] = tested on: TF-1 cells; experiment: Cell proliferation; assay type: cell-based; settings: TF-1 cells stimulated for 96 hours
Description: TF-1 cells were stimulated for 96 hours with different non-peptide EPO-R modulators, and it was observed that the non-peptide EPO binding molecules stimulated cellular proliferation in dose-responsive manner and to the extent of the natural hormone.

[2] = tested on: carboplatin-treated 8 week old C57BL mice; experiment: Carboplatin induced anemia model (hematocrit); assay type: in vivo, mouse; settings: mouse, in vivo
Description: Mice were treated with Carboplatin agent (available from Sigma, used regularly in chemotherapy) and a drop in hematocrit was induced. […] (FIGS. 9-11)
Determination of Effect of Non-peptide EPO-R Binding Small Molecule on Hematocrit in Carboplatin-Induced Anemia in 8 Week C57BI Male Mice
Preparation of injection solutions: Vehicle—Saline with 0.1 mg/mL BSA; Add 30 mg of BSA to 300 mL Saline; Vacuum filter under sterile conditions in laminar flow hood; Aliquot the saline (0.1 mg/mL BSA) solution into mini-sorp tubes. At least 41×7 mL aliquots should be prepared. Place caps on the tubes and store refrigerated at 4° C.;
Carboplatin—Dose of 120 mg/kg: Calculations for single injection given to 36 male mice (8 wks old˜25 g): […]×0.025 kg×36 mice=108 mg; Injections are delivered i.p. in a volume of 0.5 cc/mouse=0.5 cc/mouse×36 mice=18 cc; Carboplatin at 6 mg/mL for 36 mice: 108 mg/18 cc.; 120 mg/20 cc; On day of injection, add 120 mg carboplatin (Sigma #C2538) to 20 cc saline in a 100 cc beaker containing a stirring bar. Cover beaker with parafilm. Mix until the carboplatin has completely dissolved.
11 nmole/kg/mouse/day×0.025 kg×12 mice=3.3 nmoles/day; Injections are delivered i.p. in a volume of 0.5 cc/mouse/day=0.5 cc/mouse/day×12 mice=6 cc/day; non-peptide EPO-R binding small molecule for […]: 3.3 nmoles/6 cc each day: 3.85 nmole/7 cc each day; non-peptide EPO-R binding small molecule aliquot at 2 mM=2 nmole/uL; 3.85 nmole per day in 7 cc (0.55 nmole/mL); Therefore: 3.85 nmole divided by 2 nmole/uL stock=1.925 uL at 2 mM; Prepare in advance at least 10 aliquots of non-peptide EPO-R binding small molecule at 2 mM in small microfuge tubes, each with a volume of 2 uL. Freeze these aliquots; On each day of injections, add 1 thawed aliquot of the non-peptide EPO-R binding small molecule at 2 mM containing a 2 uL volume to a tube containing 7 cc of sterile saline (0.1 mg/mL BSA). […]

[3] = tested on: TF-1 and UT-7 cells; experiment: biological testing in cell lines (cell proliferation assay and cell signaling assay); assay type: cell-based
From the text: Compounds identified in the initial screen were further tested for their biological activity in two assays: a cell proliferation assay and a cell signaling assay in TF-1 and UT-7 cells. The hit rate in cell proliferation was 0.16%; hit rate in cell signaling was 0.25%.
At the end of the biological testing in cell lines TF-1 and UT-7, E4, E5, E5 analogs and E6 molecules were some of the compounds identified as showing the best activity.
Compounds identified in the initial screen were further tested for their biological activity in two assays: a cell proliferation assay and a cell signaling assay in TF-1 cells. The hit rate in cell proliferation was 0.16%; hit rate in cell signaling was 0.25%.
At the end of the biological testing in cell line, E4, E5, E5 analog, and E6 molecules were some of the compounds identified as showing the best activity.

SMILES: Cc1ccc(Cl)cc1Nc1nc2nc(C)c(NCC3CC3)cn2n1 [Compound E5]
- cellular proliferation [1]: proliferative effect
- hematocrit levels in animals treated with carboplatin [2]: restore hematocrit levels
- maximum activity compared to EPO natural hormone ([3]; cell line (TF-1 cells)): maximum activity comparable to that of the maximum activity of EPO
- maximum activity compared to EPO natural hormone ([3]; cell lines TF-1 and UT-7, in the presence of low levels of EPO): maximum activity comparable to that of the maximum activity of EPO
